Drawing on patent US9023847B2, “Azaheterocyclic compounds” (Merck Patent GmbH, priority 2009, dated 2015), this text covers IC50 for 34 compounds.

Usually IC50 stands for the midpoint of a concentration-inhibition curve.

Where only a bound is given, the exact number is not on record here.

The target in the first experiment is T1, P70S6K (T412E mutant, Millipore) (Homo sapiens, UniProt P23443, T412E).
T1 construct: purchased Millipore
T1 sequence (P23443 whole entry T412E): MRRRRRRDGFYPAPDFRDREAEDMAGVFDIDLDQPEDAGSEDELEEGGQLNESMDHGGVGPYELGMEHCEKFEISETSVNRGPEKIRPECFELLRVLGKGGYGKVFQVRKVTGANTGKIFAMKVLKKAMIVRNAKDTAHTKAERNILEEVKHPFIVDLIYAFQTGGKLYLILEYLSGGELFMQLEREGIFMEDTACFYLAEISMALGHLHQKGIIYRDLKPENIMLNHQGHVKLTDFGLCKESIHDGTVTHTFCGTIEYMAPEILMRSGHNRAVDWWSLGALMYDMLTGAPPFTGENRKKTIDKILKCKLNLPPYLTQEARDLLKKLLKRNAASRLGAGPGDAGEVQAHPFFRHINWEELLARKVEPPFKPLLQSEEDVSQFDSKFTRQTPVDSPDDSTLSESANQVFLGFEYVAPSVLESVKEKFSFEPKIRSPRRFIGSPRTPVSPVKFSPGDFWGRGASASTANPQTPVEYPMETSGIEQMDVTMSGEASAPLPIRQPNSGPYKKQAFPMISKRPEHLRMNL
In words: p70S6K enzyme assay. It is filed as biochemical. Particulars: Table 1; 3 nM P70S6K, 24 μM ATP, 90 min at 25° C.; read-out: p70S6K inhibition (IC50). The method in brief:
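T412E-mutant P70S6K (3 nM) with 24 μM ATP and 1 μM FITC-AHA-AKRRRLSSLRA-OH S6-derived peptide in 100 mM Hepes pH 7.5, 5 mM MgCl2, 1 mM DTT, 0.015% Brij; 90 min at 25° C, EDTA stop. Phosphorylated product and substrate peptide separated and quantified by microfluidic capillary electrophoresis (Caliper LabChip 3000).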
For the compound `O=C(NC1CCCNC1)c1sccc1Nc1ncnc2[nH]ccc12` (stereo not shown) [Example 151, 3-(7H-Pyrrolo[2,3-d]pyrimidin-4-ylamino)-thiophene-2-carboxylic acid piperidin-3-ylamide], the IC50 was under 100 nM.
For the compound `CNCCNC(=O)c1sccc1Nc1ncnc2[nH]ccc12` [Example 153, 3-(7H-Pyrrolo[2,3-d]pyrimidin-4-ylamino)-thiophene-2-carboxylic acid (2-methylamino-ethyl)-amide], the IC50 fell in the range of 100 to 1000 nM.
Same read-out and setting: next, `CC(C)NC(=O)c1ccccc1Nc1ccnc2[nH]ccc12` [Example 155, N-Isopropyl-2-(1H-pyrrolo[2,3-b]pyridin-4-ylamino)-benzamide]: 100 to 1000 nM.
As for `O=C(NCCc1ccccc1)c1sccc1Nc1ncnc2[nH]ccc12` [Example 143, 3-(7H-Pyrrolo[2,3-d]pyrimidin-4-ylamino)-thiophene-2-carboxylic acid phenethyl-amide], the IC50 was under 100 nM.

The same experiment, now with this note: class symbol; 3 nM P70S6K, 24 μM ATP; read-out: IC50 (p70S6K).
As to `O=C(Nc1cccc(CNC(=O)c2sccc2Nc2ccnc3[nH]ccc23)c1)c1ccc(F)cc1` [Example 100, 3-(1H-Pyrrolo[2,3-b]pyridin-4-ylamino)-thiophene-2-carboxylic acid 3-(4-fluoro-benzoylamino)-benzylamide], the IC50 was under 100 nM.
In the case of `CC(C)(C)OC(=O)N1CCC[C@@H]1CNC(=O)c1sccc1Nc1ccnc2[nH]ccc12` [Example 92, (R)-2-({[3-(1H-Pyrrolo[2,3-b]pyridin-4-ylamino)-thiophene-2-carbonyl]-amino}methyl)pyrrolidine-1-carboxylic acid tert-butyl ester], the IC50 fell in the range of 100 to 1000 nM.
The same measure, in the same setting: next, `COC(=O)CNC(=O)c1sccc1Nc1ccnc2[nH]ccc12` [Example 138, {[3-(1H-Pyrrolo[2,3-b]pyridin-4-ylamino)-thiophene-2-carbonyl]-amino}-acetic acid methyl ester]: 100 to 1000 nM; `O=C(NCCc1cccc(C(F)(F)F)c1)c1sccc1Nc1ccnc2[nH]ccc12` [Example 18, 3-(1H-Pyrrolo[2,3-b]pyridin-4-ylamino)-thiophene-2-carboxylic acid [2-(3-trifluoromethyl-phenyl)-ethyl]-amide]: under 100 nM.
As to `NCC(NC(=O)c1sccc1Nc1ccnc2[nH]ccc12)c1cccc(F)c1` (stereo not shown) [Example 106, 3-(1H-Pyrrolo[2,3-b]pyridin-4-ylamino)-thiophene-2-carboxylic acid [2-amino-1-(3-fluoro-phenyl)-ethyl]-amide], the concentration for half-maximal inhibition (IC50) is under 100 nM.
As to `O=C(N[C@@H](CO)Cc1ccccc1)c1sccc1Nc1ccnc2[nH]ccc12` [Example 81, 3-(1H-Pyrrolo[2,3-b]pyridin-4-ylamino)-thiophene-2-carboxylic acid ((R)-1-benzyl-2-hydroxy-ethyl)-amide], the IC50 was in the range of 1000 to 10000 nM.
Consider `Cc1cc(Nc2ccnc3[nH]ccc23)c(C(=O)NCCNCc2ccccc2)s1` [Example 79, 5-Methyl-3-(1H-pyrrolo[2,3-b]pyridin-4-ylamino)-thiophene-2-carboxylic acid (2-benzylamino-ethyl)-amide], for which the IC50 was 1000 to 10000 nM.
Still for that read-out and setting: the value for `CC(C)(C)OC(=O)N1CCC(NC(=O)c2sccc2Nc2ccnc3[nH]ccc23)C1` (stereo not shown) [Example 5, 3-{[3-(1H-Pyrrolo[2,3-b]pyridin-4-ylamino)-thiophene-2-carbonyl]-amino}-pyrrolidine-1-carboxylic acid tert-butyl ester] was 100 to 1000 nM; that for `O=C(NCCNCc1ccc(F)cc1)c1sccc1Nc1ccnc2[nH]ccc12` [Example 62, 3-(1H-Pyrrolo[2,3-b]pyridin-4-ylamino)-thiophene-2-carboxylic acid [2-(4-fluoro-benzylamino)-ethyl]-amide] was under 100 nM; that for `O=C(NCCSCc1ccccc1)c1sccc1Nc1ccnc2[nH]ccc12` [Example 66, 3-(1H-Pyrrolo[2,3-b]pyridin-4-ylamino)-thiophene-2-carboxylic acid (2-benzylsulfanyl-ethyl)-amide] was 100 to 1000 nM.
Same read-out and setting: next, `N#CC(NC(=O)c1ccsc1Nc1ccnc2[nH]ccc12)c1ccccc1` (stereo not shown) [Example 116, 2-(1H-Pyrrolo[2,3-b]pyridin-4-ylamino)-thiophene-3-carboxylic acid (cyano-phenyl-methyl)-amide]: under 100 nM; `NS(=O)(=O)c1ccc(CCNC(=O)c2sccc2Nc2ccnc3[nH]ccc23)cc1` [Example 14, 3-(1H-Pyrrolo[2,3-b]pyridin-4-ylamino)-thiophene-2-carboxylic acid [2-(4-sulfamoyl-phenyl)-ethyl]-amide]: under 100 nM; `O=C(NC1CCCNC1)c1ccsc1Nc1ccnc2[nH]ccc12` (stereo not shown) [Example 105, 2-(1H-Pyrrolo[2,3-b]pyridin-4-ylamino)-thiophene-3-carboxylic acid piperidin-3-ylamide]: under 100 nM.
Same read-out and setting: next, `[N-]=[N+]=NCC(NC(=O)c1sccc1Nc1ccnc2[nH]ccc12)c1ccccc1` (stereo not shown) [Example 76, 3-(1H-Pyrrolo[2,3-b]pyridin-4-ylamino)-thiophene-2-carboxylic acid (2-azido-1-phenyl-ethyl)-amide]: under 100 nM; `O=C(NCCNCc1ccccc1)c1ccsc1Nc1ccnc2[nH]ccc12` [Example 72, 2-(1H-Pyrrolo[2,3-b]pyridin-4-ylamino)-thiophene-3-carboxylic acid (2-benzylamino-ethyl)-amide]: under 100 nM; `COc1cccc(CNC(=O)c2sccc2Nc2ccnc3[nH]ccc23)c1` [Example 94, 3-(1H-Pyrrolo[2,3-b]pyridin-4-ylamino)-thiophene-2-carboxylic acid 3-methoxybenzylamide]: under 100 nM.
For `COc1cccc(C(CN)NC(=O)c2ccsc2Nc2ccnc3[nH]ccc23)c1` (stereo not shown) [Example 127, 2-(1H-Pyrrolo[2,3-b]pyridin-4-ylamino)-thiophene-3-carboxylic acid [2-amino-1-(3-methoxy-phenyl)-ethyl]-amide], the IC50 was under 100 nM.
Still for that read-out and setting: the value for `O=C(NCCNCc1ccc(C(F)(F)F)cc1)c1sccc1Nc1ccnc2[nH]ccc12` [Example 52, 3-(1H-Pyrrolo[2,3-b]pyridin-4-ylamino)-thiophene-2-carboxylic acid [2-(4-trifluoromethyl-benzylamino)-ethyl]-amide] was under 100 nM; that for `CN(C)CC(NC(=O)c1sccc1Nc1ccnc2[nH]ccc12)c1cccc(Cl)c1` (stereo not shown) [Example 159, 3-(1H-Pyrrolo[2,3-b]pyridin-4-ylamino)-thiophene-2-carboxylic acid [1-(3-chloro-phenyl)-2-dimethylamino-ethyl]-amide] was under 100 nM.
The same measure, in the same setting: the value for `O=C(NC[C@H]1CCCN1)c1sccc1Nc1ccnc2[nH]ccc12` [Example 93, 3-(1H-Pyrrolo[2,3-b]pyridin-4-ylamino)-thiophene-2-carboxylic acid ((R)-1-pyrrolidin-2-ylmethyl)-amide] was 100 to 1000 nM.
`CN(C)c1cc(C(=O)Nc2cccc(CNC(=O)c3sccc3Nc3ccnc4[nH]ccc34)c2)ccn1` [Example 162, 2-Dimethylamino-N-[3-({[3-(1H-pyrrolo[2,3-b]pyridin-4-ylamino)-thiophene-2-carbonyl]-amino}-methyl)-phenyl]-isonicotinamide]: the 50% inhibitory concentration (IC50) is under 100 nM.
With `O=C(NCCNCc1ccccc1)c1sccc1Nc1ncnc2[nH]ccc12` [Example 183, 3-(7H-Pyrrolo[2,3-d]pyrimidin-4-ylamino)-thiophene-2-carboxylic acid (2-benzylamino-ethyl)-amide], the IC50 was under 100 nM.
Still for that read-out and setting: next, `O=C(NCCS(=O)(=O)Cc1ccccc1)c1sccc1Nc1ccnc2[nH]ccc12` [Example 69, 3-(1H-Pyrrolo[2,3-b]pyridin-4-ylamino)-thiophene-2-carboxylic acid (2-phenylmethanesulfonyl-ethyl)-amide]: 100 to 1000 nM.
The same measure, in the same setting: next, `O=C(N[C@H](CO)Cc1ccccc1)c1ccsc1Nc1ccnc2[nH]ccc12` [Example 118, 2-(1H-Pyrrolo[2,3-b]pyridin-4-ylamino)-thiophene-3-carboxylic acid ((S)-1-hydroxymethyl-2-phenyl-ethyl)-amide]: under 100 nM; `O=C(NCCc1ccc(F)cc1)c1sccc1Nc1ccnc2[nH]ccc12` [Example 23, 3-(1H-Pyrrolo[2,3-b]pyridin-4-ylamino)-thiophene-2-carboxylic acid [2-(4-fluoro-phenyl)-ethyl]-amide]: under 100 nM; `O=C(NCCNCc1ccccc1OC(F)(F)F)c1sccc1Nc1ccnc2[nH]ccc12` [Example 48, 3-(1H-Pyrrolo[2,3-b]pyridin-4-ylamino)-thiophene-2-carboxylic acid [2-(2-trifluoromethoxy-benzylamino)-ethyl]amide]: under 100 nM.
Regarding `Nc1cccc(CNC(=O)c2ccsc2Nc2ccnc3[nH]ccc23)c1` [Example 111, 2-(1H-Pyrrolo[2,3-b]pyridin-4-ylamino)-thiophene-3-carboxylic acid 3-amino-benzylamide], the IC50 was under 100 nM.
On the same count and under the same terms, next, `CNCC(NC(=O)c1sccc1Nc1ccnc2[nH]ccc12)c1cccc(Cl)c1` (stereo not shown) [Example 168, 3-(1H-Pyrrolo[2,3-b]pyridin-4-ylamino)-thiophene-2-carboxylic acid [1-(3-chloro-phenyl)-2-methylamino-ethyl]-amide]: under 100 nM; `NCC(NC(=O)c1ccsc1Nc1ccnc2[nH]ccc12)c1ccc(Cl)c(Cl)c1` (stereo not shown) [Example 128, 2-(1H-Pyrrolo[2,3-b]pyridin-4-ylamino)-thiophene-3-carboxylic acid [2-amino-1-(3,4-dichloro-phenyl)-ethyl]-amide]: under 100 nM.

Staying with this experiment, now noted: numeric bound printed under the example; read-out: IC50 (p70S6K).
In the case of `O=C(N[C@H](CO)c1ccccc1)c1sc2ccccc2c1Nc1ccnc2[nH]ccc12` [Example 83, 3-(1H-Pyrrolo[2,3-b]pyridin-4-ylamino)-benzo[b]thiophene-2-carboxylic acid ((S)-2-hydroxy-1-phenyl-ethyl)-amide], the IC50 was over 10000 nM.
